Reference: ChEMBL document CHEMBL5252536, “Discovery of VU0467485/AZ13713945: An M4 PAM Evaluated as a Preclinical Candidate for the Treatment of Schizophrenia” (ACS Med Chem Lett, 2017)
The source made the active and inactive calls. The calls are words filed in the database; no cut-off is given here.

Experiments:
CHO = assay: Positive allosteric modulator activity at cynomolgus monkey M4 receptor expressed in CHO cells co-expressing Gqi5 assessed as maximal response to ACh by calcium mobilization assay relative to contol; assay type: cell-based; details: Macaca fascicularis, filed as positive allosteric modulator
[1] = Ratio of unbound drug level in Sprague-Dawley rat brain to plasma at 1 to 10 mg/kg, po by LC-MS/MS analysis; assay type: ADME, organism-based; details: dose 1-10 mg/kg, read-out: K(p,uu,brain)
[2] = molecular target: T1, Muscarinic acetylcholine receptor M4 (Homo sapiens) (UniProt P08173); assay: Positive allosteric modulator activity at human M4 receptor expressed in CHO cells co-expressing Gqi5 in absence of EC20 concentration of acetylcholine by calcium mobilization assay; assay type: cell-based
T1 sequence (whole entry): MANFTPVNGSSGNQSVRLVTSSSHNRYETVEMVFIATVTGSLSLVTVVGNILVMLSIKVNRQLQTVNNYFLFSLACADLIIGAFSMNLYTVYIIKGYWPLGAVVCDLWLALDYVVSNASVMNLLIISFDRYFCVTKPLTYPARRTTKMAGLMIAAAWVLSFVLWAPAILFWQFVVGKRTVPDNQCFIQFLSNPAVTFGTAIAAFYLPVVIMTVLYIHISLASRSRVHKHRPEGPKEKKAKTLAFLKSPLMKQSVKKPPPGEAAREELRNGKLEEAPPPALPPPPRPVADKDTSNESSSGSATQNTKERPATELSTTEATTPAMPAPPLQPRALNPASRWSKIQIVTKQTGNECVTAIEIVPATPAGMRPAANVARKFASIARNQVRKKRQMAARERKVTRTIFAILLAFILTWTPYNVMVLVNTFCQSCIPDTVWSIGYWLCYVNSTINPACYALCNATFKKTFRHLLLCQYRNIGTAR

Cytochrome P450 2D6 = Cytochrome P450 2D6 (Homo sapiens, UniProt P10635); assay: […] of human CYP2D6 mediated drug metabolism incubated for 5 mins followed by NADPH addition measured after 1 hr by LC-UV/MS analysis relative to control; assay type: ADME; details: recombinant enzyme, 1.083 h, time 65 min
[3] = Oral bioavailability in Beagle dog at 3 mg/kg by LC-MS/MS analysis; assay type: ADME, organism-based, Canis lupus familiaris; details: in vivo
Rattus norvegicus = assay: Antipsychotic activity in MK-801-induced hyperlocomotion activity in rat assessed as minimum effective dose administered orally preincubated for 30 mins followed by MK-801 addition and measured after 60 mins by open field test; assay type: functional; details: 1.5 h, route po, time 90 min, read-out: MED
[4] = Terminal brain concentration in rat model of amphetamine-induced hyperlocomotion activity at 1 to 10 mg/kg, po measured after 1.5 hrs; assay type: ADME, organism-based; details: dose 1-10 mg/kg, read-out: Ct
[5] = Toxicity in rat assessed as effect on somatomotor parameters at 56.6 mg/kg, po measured after 6 hrs by Irwin test; assay type: organism-based; details: in vivo
Cytochrome P450 1A2 [6] = molecular target: T2, Cytochrome P450 1A2 (Homo sapiens, UniProt P05177); assay: Activation of CYP1A2 in human hepatocyte using phenacetin as substrate preincubated for 5 days followed by substrate addition and measured after 1 hr by LC-MS/MS analysis; assay type: ADME, cell-based
T2 sequence (P05177 whole entry): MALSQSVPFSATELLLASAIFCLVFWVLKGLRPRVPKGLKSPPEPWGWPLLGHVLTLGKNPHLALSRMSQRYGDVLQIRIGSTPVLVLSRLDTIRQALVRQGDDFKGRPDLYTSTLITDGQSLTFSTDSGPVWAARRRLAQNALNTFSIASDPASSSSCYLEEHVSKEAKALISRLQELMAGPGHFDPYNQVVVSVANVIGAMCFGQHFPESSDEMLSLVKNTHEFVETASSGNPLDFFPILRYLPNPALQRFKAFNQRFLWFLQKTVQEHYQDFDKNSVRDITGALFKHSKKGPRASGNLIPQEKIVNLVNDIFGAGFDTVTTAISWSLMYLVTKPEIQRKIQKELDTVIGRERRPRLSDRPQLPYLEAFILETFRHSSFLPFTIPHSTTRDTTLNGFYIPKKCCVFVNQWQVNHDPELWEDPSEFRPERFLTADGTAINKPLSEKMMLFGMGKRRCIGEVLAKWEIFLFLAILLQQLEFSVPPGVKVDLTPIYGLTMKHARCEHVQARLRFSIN

[7] = Elimination half life in Sprague-Dawley rat at 3 mg/kg,po or 1 mg/kg,iv by LC-MS/MS analysis; assay type: ADME, organism-based; details: in vivo, read-out: beta t1/2 (converted)
[8] = Terminal unbound brain concentration in rat model of amphetamine-induced hyperlocomotion activity at 1 to 10 mg/kg, po measured after 1.5 hrs; assay type: ADME, organism-based; details: in vivo, dose 1-10 mg/kg
[9] = Genotoxicity in Salmonella typhimurium TA98 by Ames test; assay type: toxicity; details: salmonella enterica subsp. enterica serovar typhimurium
[10] = Ratio of drug concentration in Sprague-Dawley rat brain to plasma at 1 to 10 mg/kg, po by LC-MS/MS analysis; assay type: ADME, organism-based; details: dose 1-10 mg/kg, read-out: BPR
[11] = Tmax in Sprague-Dawley rat at 3 mg/kg,po by LC-MS/MS analysis; assay type: ADME, organism-based; details: in vivo
[12] = Volume of distribution at steady state in Cynomolgous monkey at 0.2 mg/kg,iv by LC-MS/MS analysis; details: cynomolgus monkey, in vivo, read-out: Vdss
Cytochrome P450 1A2 [13] = molecular target: T2, Cytochrome P450 1A2; assay: […] of human CYP1A2 mediated drug metabolism incubated for 5 mins followed by NADPH addition measured after 1 hr by LC-UV/MS analysis relative to control; assay type: ADME; details: recombinant enzyme, 1.083 h, time 65 min
[14] = molecular target: T3, Muscarinic acetylcholine receptor M4 (Rattus norvegicus) (UniProt P08485); assay: Positive allosteric modulator activity at rat M4 receptor expressed in CHO cells co-expressing Gqi5 assessed as maximal response to ACh by calcium mobilization assay relative to contol; assay type: cell-based; details: filed as positive allosteric modulator
T3 sequence (whole entry): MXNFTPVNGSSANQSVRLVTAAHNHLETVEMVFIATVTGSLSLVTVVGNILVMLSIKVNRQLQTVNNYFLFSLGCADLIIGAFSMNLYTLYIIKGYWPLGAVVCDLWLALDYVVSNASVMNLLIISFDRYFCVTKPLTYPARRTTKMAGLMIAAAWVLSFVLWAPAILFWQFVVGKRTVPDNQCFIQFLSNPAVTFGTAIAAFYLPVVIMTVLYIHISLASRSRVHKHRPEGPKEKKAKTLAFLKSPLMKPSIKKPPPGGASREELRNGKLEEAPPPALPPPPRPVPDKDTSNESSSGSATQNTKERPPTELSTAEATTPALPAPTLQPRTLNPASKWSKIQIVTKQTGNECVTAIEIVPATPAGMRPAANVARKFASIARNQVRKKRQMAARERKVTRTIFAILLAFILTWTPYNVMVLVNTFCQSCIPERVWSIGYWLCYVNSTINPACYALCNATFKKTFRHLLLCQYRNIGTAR

[15] = AUC (0 to infinity) in Sprague-Dawley rat at 3 mg/kg,po by LC-MS/MS analysis; assay type: ADME, organism-based; set-up: dose 3 mg/kg, route po; details: in vivo

Cytochrome P450 2D6, sequence (P10635 whole entry): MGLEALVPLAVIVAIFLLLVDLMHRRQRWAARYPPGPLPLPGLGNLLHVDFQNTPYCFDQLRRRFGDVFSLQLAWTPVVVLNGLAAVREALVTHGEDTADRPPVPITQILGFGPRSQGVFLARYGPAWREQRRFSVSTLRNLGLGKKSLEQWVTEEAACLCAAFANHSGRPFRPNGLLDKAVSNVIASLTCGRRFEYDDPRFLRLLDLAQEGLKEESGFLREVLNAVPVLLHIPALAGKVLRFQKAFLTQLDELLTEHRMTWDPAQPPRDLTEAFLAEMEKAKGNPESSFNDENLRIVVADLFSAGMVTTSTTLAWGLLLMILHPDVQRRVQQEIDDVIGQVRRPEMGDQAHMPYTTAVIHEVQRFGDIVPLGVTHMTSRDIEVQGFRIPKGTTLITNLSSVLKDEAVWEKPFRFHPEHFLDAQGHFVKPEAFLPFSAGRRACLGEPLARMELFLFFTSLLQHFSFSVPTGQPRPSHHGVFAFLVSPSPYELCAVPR

Kp uu [1]: 0.37 | Activity [2]: inactive | Activity (Cytochrome P450 2D6): 0.2% | bioavailability [3]: 9.5% | concentration at 1.5 h [4]: 560 nM | EC50 (Cytochrome P450 1A2 [6]): > 50 µM | half-life [7]: 4.2 h | Drug uptake(free) [8]: 0.02 µM | Kp [10]: 0.31 | Tmax [11]: 1.5 h | Vd [12]: 0.88 L/kg | Activity (Cytochrome P450 1A2 [13]): 21.4% | Activity [14]: 68.7% | AUC(0-inf) [15]: 3.8 µM·h
Compound: COc1ccc(CNC(=O)c2sc3nnc(C)c(C)c3c2N)cc1F
Activity (CHO): 74% | minimal effective dose (Rattus norvegicus): 30 mg/kg | Activity [5]: Non-Toxic | Activity [9]: Non-Toxic
